# Target: T1, Human-Dab2-DH (Homo sapiens, UniProt P98082)
# T1 construct: fused on or other part: N-terminal 10xHis tag with a 3C protease site, cleaved off unless otherwise indicated
# T1 sequence (P98082 33-178 limits assumed): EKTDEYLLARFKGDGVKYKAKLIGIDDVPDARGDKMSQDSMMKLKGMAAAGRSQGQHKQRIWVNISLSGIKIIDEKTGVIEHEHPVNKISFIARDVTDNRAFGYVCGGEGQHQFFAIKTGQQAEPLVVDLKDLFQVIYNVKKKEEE
# Experiment: Dab2 FP competition assay via HTS
# Format: binding
# Conditions: not given
# Experimental: CALP and/or Dab2 inhibition assays were performed in biochemical “mix-and-measure” format in order to evaluate the effects on activation and inhibition of CALP and/or Dab2 by the compounds of the disclosure. Brief assay procedure is provided below. Unless otherwise specified, all of the compounds were obtained from commercial sources.
# Dab-2 inhibitors were also identified by FP competition assays via HTS. Human-Dab2-DH, residues 31-191 (Uniprot: P98082), and trDab2-DH (residues 33-178) was subcloned into the pET16b vector via PCR utilizing the restriction enzyme sites of Xhol and BamHI. The construct was designed with a 3C protease cleavage site directly upstream and in-frame with the protein coding sequence. DNA was sequence verified. (0.1 mM) IPTG was used to induce protein expression in E. coli BL21(DE3)RIL cells, after reaching an O.D. of […]. […] Followed by 3C cleavage of the 10×His tag (unless otherwise indicated), and a second nickel affinity column to remove the 3C protease and excess tag. Dab2-DH was dialyzed into FP storage buffer (25 mM Tris pH 8.0, 150 mM NaCl, 0.1 mM TCEP, and 0.02% sodium azide). Fluorescent reporter peptides, TIVR*STA02 (TMR*-[…]) and TMR*STA03 (TMR*-[…]), were purchased commercially with the following sequence where TMR* denotes a N-terminal tetramethylrhodamine group coupled via an aminohexanoic acid linker. An unlabled positive control peptide STA02 ([…]) was also purchased commercially. Inhibitors of Dab2-DH were identified from a variety of sources with various protocols outlined below.
# For screens conducted at the Novartis Institutes for BioMedical Research FAST Lab, single-dose HTS assays were performed with libraries comprising ˜52,000 compounds at 20 μM doses. Experiments were conducted as described for screens at the University of Pittsburgh Lab and Drug Discovery Institute, except that Dab2-DH, not trDab2-DH, was used as the protein source.
# For screens conducted at the Broad Institute, compound transfers were done using a 384-well pin tool equipped with 100 nL hydrophobic surface coated pins. 100 nL of DMSO (negative control), STA02 (positive control), or library compounds were dispensed into 20 μL of protein (200 nM) and reporter (F*-STA02, 30 nM) mixture with 0.1 mg/ml mouse IgG and 0.5 mM Thesit. Final concentrations in the mixture were DMSO ([…]), STA02 (20 μM), and compounds (18 μM). Plates were incubated for 35-45 minutes before measuring polarization. Compounds were tested in duplicates on two separate plates. Positive and negative controls were included in each individual plate.
# For experiments conducted at the University of Pittsburgh Lab and Drug Discovery Institute, single-dose HTS assays were performed with a library containing ˜220,000 compounds. On the day of screening, a master mix of equal parts trDab2-DH (900 nM) and TMP-STA03 (90 nM) was prepared. Compound plates containing assay ready 2 μL aliquots of a 1 mM stock solution in DMSO were thawed, reconstituted in FP buffer to a concentration of 30 μM in 3% DMSO, and five μL transferred to low volume assay plates using a Perkin Elmer MDT. Ten μL of master mix were added by a Microflo bulk liquid dispenser (Biotek, Winooski, VT) and processed as described in the general protocol above. Each plate contained 32 wells of positive (Dab2-DH+probe+DMSO) and negative (Dab2-DH+probe +10 μM STA03) controls. Plates were read at 1.5-h and 4-h on the Envision multilabel reader.
row,Structure (SMILES),IC50 [µM]
1,"CN(C)[C@@H]1C(=O)C(C(N)=O)=C(O)[C@@]2(O)C(=O)C3=C(O)c4c(O)cccc4[C@@](C)(O)[C@H]3[C@H](O)[C@@H]12 [Example 30, (4S,4aR,5S,5aR,6S,12aR)-4-(dimethylamino)-1,5,6,10,11,12a-hexahydroxy-6-methyl-3,12-dioxo-3,4,4a,5,5a,6,12,12a-octahydrotetracene-2-carboxamide]",6.02

# Same assay, conditions: at Cmax; cells printed with %
row,Inhibitory activity Dab2 at Cmax [%],Structure (SMILES)
1,~−95,"CC1(C)Cc2ccccc2-c2n[nH]c(=S)n21 [Example 13, 5,5-dimethyl-5,6-dihydro-[1,2,4]triazolo[3,4-a]isoquinoline-3(2H)-thione]"

# Same assay, conditions: read-out: Inhibitory activity Dab2 IC50
row,Structure (SMILES),IC50 [µM]
1,"CC(=O)C1=C(O)[C@@]2(O)C(=O)c3c(c(C)c4ccc(C)c(O)c4c3O)C[C@H]2[C@@H](N)C1=O [Example 18, (1R,4aR,12aS)-3-acetyl-1-amino-4,4a,6,7-tetrahydroxy-8,11-dimethyl-12,12a-dihydrotetracene-2,5(1H,4aH)-dione]",8.86
2,"CC1CCCCCCCCCC(OC(=O)CCC(=O)O)C(=O)/C=C/C(=O)O1 (centres unmarked) [Example 27, (E)-4-((16-methyl-2,5-dioxooxacyclohexadec-3-en-6-yl)oxy)-4-oxobutanoic acid]",3.85
3,"O=C1c2c(O)c(Cl)cc3c2[C@@]2(Oc4ccc(O)c5c4[C@]3(O2)[C@@H]2O[C@@H]2C5=O)[C@@H]2O[C@H]12 [Example 34, (1aR,1bS,5aS,6aR,6bS,11aS)-3-chloro-4,10-dihydroxy-1a,5a,6a,11a-tetrahydro-5H,11H-1b,6b-epoxyoxireno[2′,3′:2,3]naphtho[1,8-bc]oxireno[2′,3′:2,3]naphtho[1,8-ef]oxepine-5,11-dione]",2.99
4,"COc1c(O)cc(C(C)C(C)=O)c(O)c1OC (centres unmarked) [Example 35, 3-(2,5-dihydroxy-3,4-dimethoxyphenyl)butan-2-one]",1.17
5,"C=C1C(=O)OC2C(=O)OC(CCCCCCCCCC)C12 (centres unmarked) [Example 32, 4-decyl-3-methylenedihydrofuro[3,4-b]furan-2,6(3H,4H)-dione]",5.22
6,"O=C1C=C(O)c2c(O)cc(O)cc2C1=O [Example 17, 4,5,7-trihydroxynaphthalene-1,2-dione]",8.29
7,"O=C(/C=C/c1ccc(O)c(O)c1)OC(Cc1ccc(O)c(O)c1)C(=O)O (centres unmarked) [Example 25, (E)-3-(3,4-dihydroxyphenyl)-2-((3-(3,4-dihydroxyphenyl)acryloyl)oxy)propanoic acid]",3.22
8,"CC(C)c1cc2c(c(O)c1O)[C@@]13CCCC(C)(C)[C@@H]1C[C@@H]2OC3=O [Example 31, (4aR,9S,10aS)-5,6-dihydroxy-7-isopropyl-1,1-dimethyl-1,3,4,9,10,10a-hexahydro-2H-9,4a-(epoxymethano)phenanthren-12-one]",5.37
9,"COc1ccc(C(=O)C(=O)Nc2ccccc2)c(O)c1 [Example 21, 2-(2-hydroxy-4-methoxyphenyl)-2-oxo-N-phenylacetamide]",0.94
10,"Cc1occ2c1C(=O)c1c(O)ccc(O)c1C2 [Example 26, 5,8-dihydroxy-3-methylnaphtho[2,3-c]furan-4(9H)-one]",0.69

# Second part, the molecule after the results:
row,IC50 [µM],Structure (SMILES)
1,8.02,"CC1OC2CC(=O)OC2C2=C1C(=O)c1c(O)cccc1C2=O (centres unmarked) [Example 33, 7-hydroxy-5-methyl-3,3a,5,11b-tetrahydro-2H-benzo[g]furo[3,2-c]isochromene-2,6,11-trione]"
2,7.73,"COC1=CC(=O)C(O)=C/C1=C\C=C\c1ccccc1 [Example 19, (E)-2-hydroxy-5-methoxy-4-((E)-3-phenylallylidene)cyclohexa-2,5-dien-1-one]"
3,6.89,"CC(C)c1cc2c(c(O)c1O)C13CCCC(C)(C)C1CC2OC3=O (centres unmarked) [Example 16, 5,6-dihydroxy-7-isopropyl-1,1-dimethyl-1,3,4,9,10,10a-hexahydro-2H-9,4a-(epoxymethano)phenanthren-12-one]"
4,0.89,"Cc1cc(O)c(Oc2cc(C)cc(O)c2O)c(O)c1 [Example 23, 3-(2,6-dihydroxy-4-methylphenoxy)-5-methylbenzene-1,2-diol]"
5,0.77,"Cc1cc(O)c(O)c(Oc2cc(C)cc(O)c2O)c1 [Example 22, 6,6′-oxybis(4-methylbenzene-1,2-diol)]"

# Source: patent US20230338340A1, “Methods of Treating Cystic Fibrosis” (The Trustees of Dartmouth College, priority 2020, published 2023)
